# Assay results: patent US20260109707A1, “HETEROBIFUNCTIONAL COMPOUNDS AND METHODS OF TREATING DISEASE” (Halda Therapeutics OpCo. Inc., priority 2022, published 2026)
# Like-named read-outs stand apart in the source and are kept apart here.
# Assays:
# [1] = system: T-Rex 293 cell line SC3 cells having increased expression of androgen receptor protein due to exposure to doxycycline; experiment: Cellular growth inhibition assay, T-Rex 293 SC3 cells with doxycycline (CellTiter-Glo, 72 hours); type: cell-based; settings: T-Rex 293 SC3 cells with increased androgen receptor expression due to doxycycline (10 ng/mL)
# Summary of the method: (§1)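 Growth inhibition is measured in an inducible AR-expressing T-Rex 293 clone, SC3, cultured with or without 10 ng/mL doxycycline in hormone-depleted medium. Test compounds are applied for 72 hours. GI50 values derive from CellTiter-Glo 2.0 signal fitted by four-parameter regression.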
# [2] = system: T-Rex 293 cell line SC3 cells lacking increased expression of androgen receptor protein; experiment: Cellular growth inhibition assay, T-Rex 293 SC3 cells without doxycycline (CellTiter-Glo, 72 hours); type: cell-based; settings: T-Rex 293 cell line SC3 cells not exposed to doxycycline (lacking increased androgen receptor expression)
# Summary of the method: as §1
# VCaP cells = experiment: Cellular growth inhibition assay for VCaP cells (CellTiter-Glo, 72 hours); type: cell-based, human
# Summary of the method: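 Luminescent viability signal after 72 h of compound exposure gave GI50 values by four-parameter nonlinear regression. Compounds were added in 0.5% DMSO to cells plated 24 h earlier at 5000/well in DMEM containing 10% FBS.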
# T47D cells = experiment: Cellular growth inhibition assay for T47D cells (CellTiter-Glo, 72 hours); type: cell-based, human; settings: 72 hours treatment
# Experimental: T47D cells were purchased from American Type Cell Culture (ATCC Cat #HTB-133) and then seeded on poly-D-lysine coated, black clear-bottom 384-well plates at 3000/well in 25 μL Dulbecco's Modified Eagle Medium (DMEM) supplemented with 10% w/w Fetal bovine serum (FBS), 0.2 units/mL recombinant human insulin (Gibco Cat #12585014), and 1% w/w Pen-Strep. Pen-Strep is a commercially available mixture of penicillin G and streptomycin, which is used in mammalian cell culture media to prevent bacterial contamination. Dulbecco's Modified Eagle Medium (DMEM) supplemented with 10% w/w fetal bovine serum (FBS), 0.2 units/mL recombinant human insulin, and 1% w/w Pen-Strep is herein referred to as Treatment Medium. Following seeding of cells in the plates, the plates were spun at 300×g for 30 seconds, then equilibrated to room temperature for 30 minutes, and then deposited in a humidified tissue culture incubator maintained at 37° C. with 5% CO2.
# At 24 hours after seeding of the cells, dilutions of test compound were prepared in DMSO and dissolved in Treatment Medium, to achieve a final DMSO concentration of 0.5% w/w, thereby providing the Test Compound Solution. A 25 μL aliquot of the Test Compound Solution was added to cells in the well plates. An equal volume of a solution containing DMSO and Treatment Medium was used as a negative control. Following treatment of cells with Test Compound Solution or said equal volume of a solution containing DMSO and Treatment Medium, the plates were spun at 300×g for 30 seconds, and then left in an incubator for 72 hours.
# At the end of the treatment duration, cell viability was quantified with CellTiter-Glo 2.0 reagent (Promega Cat #G9243). For this purpose, plates were equilibrated to room temperature for 30 minutes, and then 25 μL of CellTiter-Glo 2.0 reagent was added to cells in the plate wells. Plates were then agitated on a shaker for two minutes at 500 rpm and subsequently incubated at room temperature for 10 minutes. Following incubation, the plates were spun at 3000×g for 30 seconds, then sealed with an optical adhesive cover, and luminescence readings were measured with an EnVision Plate Reader (Perkin Elmer).
# Data was normalized using zero luminescence for baseline. A four-parameter non-linear regression curve fit was applied to dose-response data in GraphPad Prism data analysis software to determine the half-maximal growth inhibitory concentration (GI50) for each test compound.
SMILES,GI50 ([1]; 72 h) [nM],GI50 ([2]; 72 h) [nM],"GI50 (VCaP cells; Homo sapiens, VCaP, 72 h) [nM]","GI50 (T47D cells; Homo sapiens, T47D, 72 h) [nM]",other results
Cc1sc2c(c1C)C(c1ccc([C@@H]3CCCCN3C(=O)[C@H]3CCCN(c4ccc(C(=O)N[C@H]5CC[C@H](Oc6ccc(C#N)c(Cl)c6)CC5)nn4)C3)cc1)=N[C@@H](Cc1ncco1)c1nnc(C)n1-2 [I-297],< 500,> 3000,< 500,500 to 1500,–
Cc1sc2c(c1C)C(c1ccc(C(=O)N(C)CCCc3ccc(C(=O)N[C@H]4CC[C@H](Oc5ccc(C#N)c(Cl)c5)CC4)nn3)cc1)=N[C@H](Cc1ncco1)c1nnc(C)n1-2 [I-321],< 500,> 3000,< 500,1500 to 3000,–
Cc1sc2c(c1C)C(c1ccc(OC[C@H]3CC[C@@]4(CCCN(c5ccc(C(=O)N[C@H]6CC[C@H](Oc7ccc(C#N)c(Cl)c7)CC6)nn5)C4)C3)cc1)=N[C@@H](Cc1ncco1)c1nnc(C)n1-2 [I-102],< 500,< 500,< 500,< 500,–
Cc1sc2c(c1C)C(c1ccc(C[C@H]3C[C@@]4(CCCN(c5ccc(C(=O)N[C@H]6CC[C@H](Oc7ccc(C#N)c(Cl)c7)CC6)nn5)C4)C3)cc1)=N[C@@H](C)c1nnc(C)n1-2 [I-351],< 500,> 3000,1500 to 3000,> 3000,–
Cc1sc2c(c1C)C(c1ccc(-c3coc(C4CCN(c5ccc(C(=O)N[C@H]6CC[C@H](Oc7ccc(C#N)c(Cl)c7)CC6)nn5)CC4)n3)cc1)=NC(Cc1ncco1)c1nnc(C)n1-2 (stereo partly drawn) [I-442],–,–,–,–,GI50 [1]: < 500 nM; GI50 [2]: < 500 nM; GI50 (VCaP cells): < 500 nM; GI50 (T47D cells): < 500 nM
Cc1sc2c(c1C)C(c1ccc([C@H]3C[C@@H]3CC3CCCN(c4ccc(C(=O)N[C@H]5CC[C@H](Oc6ccc(C#N)c(Cl)c6)CC5)nn4)C3)cc1)=N[C@@H](Cc1ncco1)c1nnc(C)n1-2 (stereo partly drawn) [I-202],< 500,< 500,< 500,< 500,–
Cc1sc2c(c1C)C(c1ccc(CN3CCN(C(=O)c4ccc(C(=O)N[C@H]5CC[C@H](Oc6ccc(C#N)c(Cl)c6)CC5)nn4)CC3)cc1)=N[C@@H](Cc1ncco1)c1nnc(C)n1-2 [I-242],< 500,< 500,< 500,< 500,–
Cc1sc2c(c1C)C(c1ccc(C(=O)N3CCC[C@@H](Cc4ccc(C(=O)N[C@H]5CC[C@H](Oc6ccc(C#N)c(Cl)c6)CC5)nn4)C3)cc1)=N[C@@H](Cc1ncco1)c1nnc(C)n1-2 [I-274],–,–,> 3000,> 3000,–
Cc1sc2c(c1C)C(c1ccc(C(=O)N3CC[C@]4(CCCN(c5ccc(C(=O)N[C@H]6CC[C@H](Oc7ccc(C#N)c(Cl)c7)CC6)nn5)C4)C3)cc1)=N[C@@H](Cc1ncco1)c1nnc(C)n1-2 [I-270],–,–,500 to 1500,> 3000,–
Cc1sc2c(c1C)C(c1ccc(C(=O)N3CC[C@@]4(CCCN(c5ccc(C(=O)N[C@H]6CC[C@H](Oc7ccc(C#N)c(Cl)c7)CC6)nn5)C4)C3)cc1)=N[C@H](Cc1ncco1)c1nnc(C)n1-2 [I-271],–,–,> 3000,> 3000,–
Cc1sc2c(c1C)C(c1ccc(C[C@@H]3CC[C@]4(C3)CN(c3ccc(C(=O)N[C@H]5CC[C@H](Oc6ccc(C#N)c(Cl)c6)CC5)nn3)CCO4)cc1)=N[C@@H](Cc1ncco1)c1nnc(C)n1-2 [I-264],–,–,1500 to 3000,> 3000,–
Cc1sc2c(c1C)C(c1ccc(OC[C@H]3C[C@]4(CCCN(c5ccc(C(=O)N[C@H]6CC[C@H](Oc7ccc(C#N)c(Cl)c7)CC6)nn5)C4)C3)cc1)=N[C@@H](C)c1nnc(C)n1-2 [I-309],< 500,> 3000,–,500 to 1500,–
Cc1sc2c(c1C)C(c1ccc(C[C@@H]3CCC4CN(c5ccc(C(=O)N[C@H]6CC[C@H](Oc7ccc(C#N)c(Cl)c7)CC6)nn5)CCN4C3)cc1)=N[C@@H](Cc1ncco1)c1nnc(C)n1-2 (stereo partly drawn) [I-259],–,–,< 500,< 500,–
Cc1sc2c(c1C)C(c1ccc(C[C@@H]3CC[C@@]4(C3)CN(c3ccc(C(=O)N[C@H]5CC[C@H](Oc6ccc(C#N)c(Cl)c6)CC5)nn3)CCO4)cc1)=N[C@@H](Cc1ncco1)c1nnc(C)n1-2 [I-265],–,–,–,–,GI50 (VCaP cells): 1500 to 3000 nM; GI50 (T47D cells): > 3000 nM
Cc1sc2c(c1C)C(c1ccc(C#CC3CC4(C3)CN(c3ccc(C(=O)N[C@H]5CC[C@H](Oc6ccc(C#N)c(Cl)c6)CC5)nn3)C4)cn1)=N[C@@H](Cc1ncco1)c1nnc(C)n1-2 [I-280],–,–,< 500,> 3000,–
Cc1sc2c(c1C)C(c1ccc(NCC(=O)N3CCC(c4ccc(C(=O)N[C@H]5CC[C@H](Oc6ccc(C#N)c(Cl)c6)CC5)nn4)CC3)cc1)=N[C@@H](Cc1ncco1)c1nnc(C)n1-2 [I-268],–,–,> 3000,500 to 1500,–
Cc1sc2c(c1C)C(c1ccc(OC[C@H]3C[C@]4(CCCN(c5ccc(C(=O)N[C@H]6CC[C@H](Oc7ccc(C#N)c(Cl)c7)CC6)nn5)C4)C3)cc1)=N[C@@H](C)c1nnc(C)n1-2 [I-354],–,–,< 500,–,GI50 [2]: > 3000 nM; GI50 (T47D cells): 500 to 1500 nM
Cc1sc2c(c1C)C(c1ccc(CC3CCC4CN(c5ccc(C(=O)N[C@H]6CC[C@H](Oc7ccc(C#N)c(Cl)c7)CC6)nn5)CCN4C3)cc1)=N[C@@H](Cc1ncco1)c1nnc(C)n1-2 (stereo partly drawn) [I-283],–,–,< 500,< 500,–
Cc1sc2c(c1C)C(c1ccc(C#CC3CC4(C3)CN(c3ccc(C(=O)N[C@H]5CC[C@H](Oc6ccc(C#N)c(Cl)c6)CC5)nn3)C4)nc1)=N[C@@H](Cc1ncco1)c1nnc(C)n1-2 [I-282],–,–,> 3000,> 3000,–
Cc1sc2c(c1C)C(c1ccc(C(=O)N3CC[C@@]4(CCCN(c5ccc(C(=O)N[C@H]6CC[C@H](Oc7ccc(C#N)c(Cl)c7)CC6)nn5)C4)C3)cc1)=N[C@@H](Cc1ncco1)c1nnc(C)n1-2 [I-269],–,–,> 3000,1500 to 3000,–
Cc1sc2c(c1C)C(c1ccc(CN(C)C(=O)CCc3ccc(C(=O)N[C@H]4CC[C@H](Oc5ccc(C#N)c(Cl)c5)CC4)nn3)cc1)=N[C@@H](Cc1ncco1)c1nnc(C)n1-2 [I-273],–,–,< 500,500 to 1500,–
Cc1sc2c(c1C)C(c1ccc(C[C@H]3CCC4CN(c5ccc(C(=O)N[C@H]6CC[C@H](Oc7ccc(C#N)c(Cl)c7)CC6)nn5)CCN4C3)cc1)=N[C@@H](Cc1ncco1)c1nnc(C)n1-2 (stereo partly drawn) [I-258],–,–,< 500,< 500,–
Cc1sc2c(c1C)C(c1ccc(C3CCC4(CC3)CCN(c3ccc(C(=O)N[C@H]5CC[C@H](Oc6ccc(C#N)c(Cl)c6)CC5)nn3)CC4)cc1)=N[C@@H](C)c1nnc(C)n1-2 [I-590],< 500,< 500,> 3000,–,–
Cc1sc2c(c1C)C(c1ccc(C3CN(C4CCN(c5ccc(C(=O)N[C@H]6CC[C@H](Oc7ccc(C#N)c(Cl)c7)CC6)nn5)CC4)C3)cc1)=NC1(CC1)c1nnc(C)n1-2 [I-552],< 500,1500 to 3000,> 3000,–,–
Cc1sc2c(c1C)C(c1ccc(N3C[C@@H]4[C@H](C3)[C@H]4Nc3ncc(C(=O)N[C@H]4CC[C@H](Oc5ccc(C#N)c(Cl)c5)CC4)cn3)cc1)=NC(Cc1ncco1)c1nnc(C)n1-2 (stereo partly drawn) [I-805],< 500,< 500,< 500,–,–
Cc1sc2c(c1C)C(c1ccc(N3CCC4(CC3)CCN(c3ccc(C(=O)N[C@H]5CC[C@H](Oc6ccc(C#N)c(Cl)c6)CC5)nn3)CC4)cc1)=NC1(CC1)c1nnc(C)n1-2 [I-490],< 500,> 3000,> 3000,–,–
Cc1sc2c(c1C)C(c1ccc(OCC3CC4(CCCN(c5ccc(C(=O)N[C@H]6CC[C@H](Oc7ccc(C#N)c(Cl)c7)CC6)nn5)C4)C3)cn1)=N[C@@H](C)c1nnc(C)n1-2 (stereo partly drawn) [I-483],–,–,–,–,GI50 [1]: < 500 nM; GI50 [2]: < 500 nM; GI50 (VCaP cells): < 500 nM
CCNC(=O)C[C@@H]1N=C(c2ccc(CCCC3CCN(c4ccc(C(=O)N[C@H]5CC[C@H](Oc6ccc(C#N)c(Cl)c6)CC5)nn4)CC3)cc2)c2c(sc(C)c2C)-n2c(C)nnc21 [I-33],–,500 to 1500,< 500,500 to 1500,–
